Measured values reported in BindingDB's records for patent US11547697 (Millennium Pharmaceuticals, 2023).

Assays:
[1] = target: Phosphatidylinositol 4,5-bisphosphate 3-kinase catalytic subunit beta isoform (Homo sapiens, UniProt P42338); assay: Inhibition Assay of PI3K
Description: (§1) An exemplary system is PI 3-Kinase (human) HTRF Assay from Upstate. […] Briefly, the assay is a time resolved FRET assay that indirectly measures PIP3 product formed by the activity of a PI3-K. The kinase reaction is performed in a microtitre plate (e.g., a 384 well microtitre plate). The total reaction volume is approximately 20 ul per well. In the first step, each well receives 2 ul of test compound in 20% dimethylsulphoxide resulting in a 2% DMSO final concentration. Next, approximately 14.5 ul of a kinase/PIP2 mixture (diluted in 1× reaction buffer) is added per well for a final concentration of 0.25-0.3 ug/ml kinase and 10 μM PIP2. The plate is sealed and incubated for 15 minutes at room temperature. To start the reaction, 3.5 ul of ATP (diluted in 1× reaction buffer) is added per well for a final concentration of 10 μM ATP. The plate is sealed and incubated for 1 hour at room temperature. The reaction is stopped by adding 5 ul of Stop Solution per well and then 5 ul of Detection Mix is added per well. The plate is sealed, incubated for 1 hour at room temperature, and then read on an appropriate plate reader.

[2] = target: T1, Phosphatidylinositol 4,5-bisphosphate 3-kinase catalytic subunit delta isoform (Homo sapiens, UniProt O00329); assay: Inhibition Assay of PI3K
T1 sequence (O00329 whole entry): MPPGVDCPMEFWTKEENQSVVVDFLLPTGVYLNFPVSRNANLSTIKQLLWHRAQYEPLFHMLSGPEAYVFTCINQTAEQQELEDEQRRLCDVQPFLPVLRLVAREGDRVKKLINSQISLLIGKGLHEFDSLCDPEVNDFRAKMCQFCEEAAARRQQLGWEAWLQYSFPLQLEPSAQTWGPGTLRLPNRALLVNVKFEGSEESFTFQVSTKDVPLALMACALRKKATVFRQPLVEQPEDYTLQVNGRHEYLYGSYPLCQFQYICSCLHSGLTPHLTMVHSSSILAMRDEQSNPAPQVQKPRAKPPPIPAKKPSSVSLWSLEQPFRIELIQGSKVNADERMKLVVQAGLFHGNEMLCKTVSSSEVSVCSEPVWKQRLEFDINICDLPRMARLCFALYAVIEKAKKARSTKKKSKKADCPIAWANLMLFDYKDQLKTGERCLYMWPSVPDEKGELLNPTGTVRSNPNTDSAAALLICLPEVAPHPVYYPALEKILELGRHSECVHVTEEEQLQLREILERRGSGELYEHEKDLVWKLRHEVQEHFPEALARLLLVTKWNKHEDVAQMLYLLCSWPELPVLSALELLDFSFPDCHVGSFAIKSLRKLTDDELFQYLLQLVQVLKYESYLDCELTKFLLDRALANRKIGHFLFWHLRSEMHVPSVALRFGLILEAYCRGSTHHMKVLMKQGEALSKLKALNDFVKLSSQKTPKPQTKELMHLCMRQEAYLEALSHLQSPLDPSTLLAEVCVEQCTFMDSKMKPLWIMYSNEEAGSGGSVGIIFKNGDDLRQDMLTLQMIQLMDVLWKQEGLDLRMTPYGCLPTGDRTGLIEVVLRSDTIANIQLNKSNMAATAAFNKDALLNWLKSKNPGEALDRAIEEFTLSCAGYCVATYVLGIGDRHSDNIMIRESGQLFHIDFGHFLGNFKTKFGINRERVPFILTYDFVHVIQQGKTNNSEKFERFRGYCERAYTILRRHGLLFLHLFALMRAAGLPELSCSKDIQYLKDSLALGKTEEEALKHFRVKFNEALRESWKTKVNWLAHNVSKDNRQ
Description: as §1

Phosphatidylinositol 4,5-bisphosphate 3-kinase catalytic subunit beta isoform, sequence (P42338 whole entry, canonical isoform): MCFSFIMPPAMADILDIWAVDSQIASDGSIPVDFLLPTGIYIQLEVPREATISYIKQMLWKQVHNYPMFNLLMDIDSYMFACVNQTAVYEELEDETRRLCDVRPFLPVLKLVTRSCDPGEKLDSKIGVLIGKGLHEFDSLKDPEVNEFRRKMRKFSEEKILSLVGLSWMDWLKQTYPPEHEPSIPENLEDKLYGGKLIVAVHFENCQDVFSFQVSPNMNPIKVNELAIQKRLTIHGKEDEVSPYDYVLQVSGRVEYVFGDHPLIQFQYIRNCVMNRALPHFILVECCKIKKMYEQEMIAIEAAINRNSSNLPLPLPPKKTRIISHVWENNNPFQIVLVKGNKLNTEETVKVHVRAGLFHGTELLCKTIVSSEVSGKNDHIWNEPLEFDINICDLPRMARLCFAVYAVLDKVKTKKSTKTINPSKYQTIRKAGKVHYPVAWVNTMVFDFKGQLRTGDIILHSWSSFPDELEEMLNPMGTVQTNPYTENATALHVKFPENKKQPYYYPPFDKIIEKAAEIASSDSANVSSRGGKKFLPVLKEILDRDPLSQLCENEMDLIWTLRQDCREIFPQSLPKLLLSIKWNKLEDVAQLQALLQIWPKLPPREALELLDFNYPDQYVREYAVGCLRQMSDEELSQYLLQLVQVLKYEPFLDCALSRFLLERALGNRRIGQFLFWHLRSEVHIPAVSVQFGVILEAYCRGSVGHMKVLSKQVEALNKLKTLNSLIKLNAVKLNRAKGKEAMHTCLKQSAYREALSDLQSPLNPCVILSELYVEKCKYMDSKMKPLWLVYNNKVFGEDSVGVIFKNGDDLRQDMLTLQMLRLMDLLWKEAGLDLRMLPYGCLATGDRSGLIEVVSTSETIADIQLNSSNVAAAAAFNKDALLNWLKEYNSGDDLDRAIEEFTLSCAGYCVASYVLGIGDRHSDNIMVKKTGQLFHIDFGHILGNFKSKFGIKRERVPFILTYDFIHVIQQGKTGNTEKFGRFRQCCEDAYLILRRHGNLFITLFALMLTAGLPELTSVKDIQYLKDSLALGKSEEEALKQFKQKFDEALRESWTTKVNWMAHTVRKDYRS

Row | Structure (SMILES) | IC50 [1] | IC50 [2]
1 | CC(=O)Nc1nc2ccc(-c3ccc4nccc(-c5ccncc5)c4c3)cc2s1 [US11547697, Compound 2] | > 10 µM | > 10 µM
2 | Nc1nc2cc(-c3cc4nccc(-c5ccncc5)c4s3)ccc2o1 [US11547697, Compound 14] | > 10 µM | > 10 µM
3 | Nc1noc2ccc(-c3ccc4nccc(-c5ccncc5)c4c3)cc12 [US11547697, Compound 18] | > 10 µM | > 10 µM
4 | Nc1nc2cc(-c3c[nH]c4nccc(-c5ccncc5)c34)ccc2o1 [US11547697, Compound 25] | > 10 µM | > 10 µM
5 | Nc1nc2cc(-c3ccc4ncc(-c5cccnc5)nc4c3)ccc2o1 [US11547697, Compound 76] | > 10 µM | > 10 µM
6 | N#Cc1cnc2ccc(-c3ccc4oc(N)nc4c3)cc2c1 [US11547697, Compound 93] | > 10 µM | > 10 µM
7 | Nc1nc2cc(-c3ccc4ncc(N5CCS(=O)(=O)CC5)nc4c3)ccc2o1 [US11547697, Compound 98] | > 10 µM | > 10 µM
8 | CN1CCN(C(=O)c2cnc3ccc(-c4ccc5oc(N)nc5c4)nn23)CC1 [US11547697, Compound 104] | > 10 µM | > 10 µM
9 | C[C@@H]1CN(C(=O)c2cnc3ccc(-c4ccc5oc(N)nc5c4)cn23)C[C@H](C)O1 [US11547697, Compound 106] | > 10 µM | > 10 µM
10 | Nc1nc2cc(-c3ccc4ncc(C(=O)N5CCS(=O)(=O)CC5)n4c3)ccc2o1 [US11547697, Compound 107] | > 10 µM | > 10 µM
11 | CC(=O)N1CCN(C(=O)c2cnc3ccc(-c4ccc5oc(N)nc5c4)cn23)CC1 [US11547697, Compound 113] | > 10 µM | > 10 µM
12 | Nc1nc2ccc(-c3ccc4ncc(N5CCOCC5)nc4c3)cc2s1 [US11547697, Compound 114] | > 10 µM | > 10 µM
13 | C[C@@H]1CN(c2cnc3ccc(-c4ccc5oc(N)nc5c4)cc3n2)C[C@H](C)O1 [US11547697, Compound 132] | > 10 µM | > 10 µM
14 | CCN1CCN(C(=O)c2cnc3ccc(-c4ccc5oc(N)nc5c4)cn23)CC1 [US11547697, Compound 141] | > 10 µM | > 10 µM
15 | Nc1nc2cc(-c3ccc4ncc(C(=O)N5CCN(CCO)CC5)n4c3)ccc2o1 [US11547697, Compound 148] | > 10 µM | > 10 µM
16 | Nc1nc2cc(-c3ccc4ncc(C(=O)N5CCC(O)CC5)n4c3)ccc2o1 [US11547697, Compound 162] | > 10 µM | > 10 µM
17 | Nc1nc2cc(-c3ccc4ncc(N5CCCCC5)nc4c3)ccc2o1 [US11547697, Compound 175] | > 10 µM | > 10 µM
18 | Cc1cn(-c2cnc3ccc(-c4ccc5oc(N)nc5c4)cc3n2)cn1 [US11547697, Compound 177] | > 10 µM | > 10 µM
19 | Cc1ccc(-c2cnc3ccc(-c4ccc5oc(N)nc5c4)cc3n2)cn1 [US11547697, Compound 194] | > 10 µM | > 10 µM
20 | CC(C)n1cnc2ccc(-c3ccc4oc(N)nc4c3)cc2c1=O [US11547697, Compound 206] | > 10 µM | > 10 µM
21 | Cc1ccn(C2CCN(c3cnc4ccc(-c5ccc6oc(N)nc6c5)cc4n3)CC2)n1 [US11547697, Compound 223] | > 10 µM | > 10 µM
22 | Nc1nc2cc(-c3ccc4ncn(C5CC5)c(=O)c4c3)ccc2o1 [US11547697, Compound 254] | > 10 µM | > 10 µM
23 | NC(=O)[C@@H]1CCCN1C(=O)c1cnc2ccc(-c3ccc4oc(N)nc4c3)cn12 [US11547697, Compound 259] | > 10 µM | > 10 µM

Row | Structure (SMILES) | IC50 [1] | IC50 [2]
24 | NC(=O)[C@H]1CCCN1C(=O)c1cnc2ccc(-c3ccc4oc(N)nc4c3)cn12 [US11547697, Compound 260] | > 10 µM | > 10 µM
25 | Nc1nc2cc(-c3ccc4ncc(N5CC(N6CCOCC6)C5)nc4c3)ccc2o1 [US11547697, Compound 273] | > 10 µM | > 10 µM
26 | NC(=O)[C@@H]1CCCN1C(=O)C1CN(c2cnc3ccc(-c4ccc5oc(N)nc5c4)cc3n2)C1 [US11547697, Compound 283] | > 10 µM | > 10 µM
27 | Cc1ccn(C2CCN(C(=O)c3cnc4ccc(-c5ccc6oc(N)nc6c5)cn34)CC2)n1 [US11547697, Compound 297] | > 10 µM | > 10 µM
28 | Nc1nc2cc(-c3ccc4ncc(N5CCC(n6cccn6)CC5)nc4c3)ccc2o1 [US11547697, Compound 337] | > 10 µM | > 10 µM
29 | Nc1nc2cc(-c3ccc4ncc(C(=O)N5CC5)n4c3)ccc2o1 [US11547697, Compound 340] | > 10 µM | > 10 µM
30 | Cc1c(-c2ccc3oc(N)nc3c2)ccc2ncc(N3CC(N4CCNCC4)C3)nc12 [US11547697, Compound 386] | > 10 µM | > 10 µM
31 | Nc1nc2cc(-c3ccc4ncc(N5CCNCC5=O)nc4c3)ccc2o1 [US11547697, Compound 389] | > 10 µM | > 10 µM
32 | Nc1nc2cc(-c3ccc4ncc(N5CCN(CC(F)(F)F)CC5)nc4c3)ccc2o1 [US11547697, Compound 395] | > 10 µM | > 10 µM
33 | O=C(c1cnc2ccc(-c3cncc(NS(=O)(=O)c4ccccc4)c3)cn12)N1CCOCC1 [US11547697, Compound 424] | > 10 µM | –
34 | O=C(c1cnc2ccc(-c3cncc(NS(=O)(=O)c4ccc(F)cc4F)c3)cn12)N1CCOCC1 [US11547697, Compound 425] | > 10 µM | –
35 | Cc1cc(-c2ccc3oc(N)nc3c2)cn2c(C(=O)N3CCOCC3)cnc12 [US11547697, Compound 448] | > 10 µM | > 10 µM
36 | O=C(c1cnc2ccc(-c3cccc(NS(=O)(=O)c4ccccc4)c3)cn12)N1CCOCC1 [US11547697, Compound 453] | > 10 µM | > 10 µM
37 | O=C(c1cnc2ccc(-c3cccc(NS(=O)(=O)c4ccc(F)cc4F)c3)cn12)N1CCOCC1 [US11547697, Compound 454] | > 10 µM | –
38 | COc1ccc(-c2ccc3ncc(C(=O)N4CCOCC4)n3c2)cc1NS(=O)(=O)c1ccccc1 [US11547697, Compound 455] | > 10 µM | > 10 µM
39 | O=C(c1cnc2ccc(-c3ccc(Cl)c(NS(=O)(=O)c4ccccc4)c3)cn12)N1CCOCC1 [US11547697, Compound 459] | > 10 µM | > 10 µM
40 | Nc1nc2cc(-c3ccc4ncc(C(=O)N5CC[C@@H](F)C5)n4c3)ccc2o1 [US11547697, Compound 475] | > 10 µM | –
41 | Nc1nc2cc(-c3ccc4ncc(C(=O)N5CC[C@@H](n6cccn6)C5)n4c3)ccc2o1 [US11547697, Compound 477] | > 10 µM | –
42 | Nc1nc2cc(-c3ccc4ncc(C(=O)N5CC(n6cccn6)C5)n4c3)ccc2o1 [US11547697, Compound 479] | > 10 µM | –
43 | Nc1nc2cc(-c3ccc4ncc(C(=O)N5C6CCC5COC6)n4c3)ccc2o1 [US11547697, Compound 480] | > 10 µM | –
44 | C[C@H]1CCCN1C(=O)c1cnc2ccc(-c3ccc4oc(N)nc4c3)cn12 [US11547697, Compound 482] | > 10 µM | –
45 | Nc1nc2cc(-c3ccc4ncc(C(=O)N5CC(N6CCC(F)(F)C6)C5)n4c3)ccc2o1 [US11547697, Compound 502] | > 10 µM | –
46 | COc1ncc(-c2ccc3ncc(C(=O)N4CCOCC4)n3c2)c2cn[nH]c12 [US11547697, Compound 517] | > 10 µM | –
